Measurements from patent US10245245B2, “Compositions and methods for neuroprotection and treatment of neurodegeneration” (Vireo Systems, Inc., priority 2015, dated 2019).

Columns and labels:
[1] = Relative bioavailability; conditions: in vivo
[2] = tested on: confirmed carriers of the HD gene mutation; assay: Creatine HCl in patients having HD gene mutation (clinical neurological assessment, MRI); assay type: in vivo, human; conditions: 10 to 12 grams/day
Description: Patients were confirmed carriers of the HD gene mutation at early stage 1 progression. Each patient was instructed to take 10 to 12 grams/day of creatine HCl. Neurological progression of disease was monitored quarterly as were full blood chemistry profiles. Assessment of neurological progression using magnetic resonance imaging (MRI) was also performed at a minimum of once a year.

[3] = cited from earlier work

Compound | relative bioavailability, greater than creatine monohydrate [1] | progression of disease (clinical neurological assessments or MRI) ([2]; 3.5 years, early stage 1 carriers) | onset of the disease / symptoms ([2]; over the 3.5 year time period) | patients unable to tolerate the maximum dose ([3]; 30 g daily) | those on placebo unable to tolerate the maximal dose when they switched to it ([3]; maximal dose 30 g daily) [%]
CN(CC(=O)O)C(=N)N.Cl [creatine HCl, creatine hydrochloride] | at least 50% | no progression of disease | no symptoms | – | –
CN(CC(=O)O)C(=N)N.O [creatine monohydrate] | – | – | – | about one-third | 13
